Measured values reported in patent US12115248B2, “Devices and methods for delivering methane inhibiting compounds to animals” (Ruminant Biotech Corp Limited, priority 2022, dated 2024).
“And” between values parts separate entries of the source, which are not always exact repeats. Equal entries are not always repeated. “Also recorded” adds a separate entry of the source. Where two headings read alike, the source gives them in different places. Marks after values point to notes of the source that are not given here.

What was measured:
[1] = test system: methane emissions; experiment: Animal study (Example 3): gas emissions in respiration chambers; format: in vivo, dairy beef heifers
Experimental: An animal study was conducted to determine methane emissions from an animal implanted with a bolus of the disclosure. The experiment was designed as an unbalanced, completely randomized design with three treatments and three repeated measurements over time in three periods 8 to 12 weeks apart.
Nineteen dairy beef heifers (312±14 kg live weight), including three spare animals, were selected from a mob of 50 based on behaviour traits and liveweight from a research farm in the Manawatu, New Zealand. They were assigned to one of three treatments: a bolus containing no bromoform (CONTROL; n=4); a bolus releasing bromoform at a rate of about 300-400 mg/day (LOW, n=6); or a bolus releasing about 450-580 mg/day (HIGH, n=6). SmaXtec boluses were administered at the same time to monitor rumen temperature as an animal health monitor and to complement the weekly blood samples.
The heifers were transported from research farm to a testing centre for diet adaptation and gas measurements using respiration chambers. The heifers were adapted to the environment of the cattle yards and the fresh cut pasture for 7 days before receiving their allocated treatment bolus. Gas measurements started 13 days after the boluses were administrated. Each heifer was in the respiration chambers for 48 hours during the period of gas measurements, which took two weeks for four measurement groups. At the end of the measurements in respiration chambers, the animals were transported back to research farm.
Fermentation gases methane (CH4), carbon dioxide (CO2) and hydrogen (H2) were quantified in four open-circuit respiration chambers at the New Zealand Ruminant Methane Measurement Centre (AgResearch, Palmerston North, New Zealand). Each chamber is 15.4 m^3 (3.5 m long×2 m wide×2.2 m high) with an air flow rate of around 1.0 m^3/min, which was continuously monitored by measuring differential pressure using a Venturi flowmeter. Temperature inside respiration chambers was approximately 20° C. and the relative humidity was on average approximately 79%. All gases were measured at ˜2.8-min intervals using a 4900C Continuous Emission analyser (Servomex Group Ltd, East Sussex, UK) and daily production of each gas was calculated from the difference between concentration flowing in- and out of the chamber (Pinares-Patiño et al., 2012). Respiration chambers were opened twice daily (˜20 min each time) for cleaning, feeding, faecal sampling and feed refusal collection. No measurements were performed during the period when chambers were opened, and missing data were interpolated by taking the average of the last 12 values ([…]) before the doors were opened.
Data from the first period of gas measurements was analysed using the ‘predictmeans’ and ‘Ime4’ packages in the statistical software R 4.0.3 (R Core Team, 2020). Data for dry matter intake and gas emissions for each heifer were averaged across the two measurement days. Heifer served as the experimental unit. The mixed model included treatment as fixed effect and respiration chamber nested in measurement group as random effect.

[2] = test system: methane emissions; experiment: Preliminary field trial (Example 14): gas emission measurements in respiration chambers; format: in vivo, heifers
Experimental: The following preliminary field trial is an example of the methane inhibiting capabilities of the bolus invention in a live animal trial using recognised methane analysis techniques. The bolus used in the trial is outlined in Table 14 and the trial time schedule is outlined in Table 16.
Five different total bromoform doses across two different diets were tested, giving a total of ten treatments (Table 15). […] Within each dose group, half of the animals were fed baleage (baled cut and covered pasture), and the other half were adapted to a diet of fresh cut ryegrass (New Zealand fresh pasture). Boluses were washed prior to administration to remove any bromoform that may have accumulated on the outside of the bolus. The additional boluses were administered on day 69 per os. (oesophagus). The second measurement session began 10 days after said bolus administration, with animals entering the respiration chambers for a 48-hour period in groups of four.
(§1) Liveweights of the animals were recorded prior to the first bolus administration and following each measurement period. Gas production of methane, hydrogen, and carbon dioxide was assessed every 3 min over a 48-hour period in respiration chambers using a 4900C Continuous Emission Analyser. […] Rumen fluid contents were sampled prior to bolus administration and following measurement periods in the respiration chambers. Rumen samples were assessed for pH and short-chain fatty acids (SCFAs) content, and were stored for bromoform residue analysis later on. Blood samples were collected 16 days prior to bolus administration, and on days 34 and 94 following the measurement periods. Blood samples were assessed biochemical constitution and for liver enzymes.
Emissions of methane (CH4), hydrogen (H2) and carbon dioxide (CO2) were assessed in respiration chambers over 48 hour measurements and converted to a per-day-total. […] The data are combined for both feeds during measurement session 2 (cf. schedule table 16). P-values were calculated by single-factor ANOVA and differences were deemed particularly significant for p-value <0.05.

[3] = Preliminary field trial (Example 14): dry matter intake, liveweight, blood samples; format: in vivo, heifers
Experimental: as §1
The data are combined for both feed types during measurement session 2. […]

[4] = rats; cited from earlier work
[5] = mice; cited from earlier work
[6] = after 48 hour with holding period; cited from earlier work
[7] = in vivo; cited from earlier work
[8] = 260 mg/d (HIGH + 156), period 2

BrC(Br)Br [bromoform]
H2 ([1]; HIGH, 450 mg/d): 20.08^a g/d | CH4 production (g/day) decrease compared with CONTROL ([1]; HIGH, about 450-580 mg/day): more than 99% | CH4 yield (g/kg dry matter intake) decrease compared with CONTROL ([1]; HIGH, about 450-580 mg/day): more than 99% | H2 ([1]; LOW, 300 mg/d): 20.60^a g/d | CH4 production (g/day) decrease compared with CONTROL ([1]; LOW, about 300-400 mg/day): more than 99% | CH4 yield (g/kg dry matter intake) decrease compared with CONTROL ([1]; LOW, about 300-400 mg/day): more than 99% | CO2 ([2]; 156 mg/d (CON + 156), period 2): 5666 ± 327 g/day | H2 ([2]; 156 mg/d (CON + 156), period 2): 7.9 ± 3.5 g/day | CH4 ([2]; 156 mg/d (CON + 156), period 2, all animals, average ± standard error): 48.7 ± 29.5 g/day | methane emissions of individual animals ([2]; 156 mg/day dose group (CON+156)): about 0.2 g/d and ~0 g/d and 76 g/d | methane emissions as % of the average of the untreated control group ([2]; 156 mg/day, one animal with partial knockdown): approximately 50% | CH4 ([2]; 182 mg/d (LOW + 156), period 2): 18.6 ± 18.2 g/day | CO2 ([2]; 182 mg/d (LOW + 156), period 2): 5589 ± 295 g/day | H2 ([2]; 182 mg/d (LOW + 156), period 2): 13.7 ± 4.7 g/day | methane inhibition, animals responding ([2]; 182 mg/d (LOW+156)): full methane inhibition was observed for three of the four treated animals; also recorded: Partial inhibition was observed for 1 out of 4 animals | methane emission compared to control animals ([2]; 182 mg/d, fourth animal): approximately 50% | CH4 ([2]; 208 mg/d (MED + 156), period 2): -0.3 ± 0.5 g/day | CO2 ([2]; 208 mg/d (MED + 156), period 2): 5011 ± 377 g/day | H2 ([2]; 208 mg/d (MED + 156), period 2): 17.2 ± 3.5 g/day | methane inhibition ([2]; 208 mg/d or more): full methane inhibition | CH4 [2, 8]: -0.2 ± 0.3 g/day | CO2 [2, 8]: 5159 ± 308 g/day | H2 [2, 8]: 17 ± 3.4 g/day | CH4 ([2]; Baleage, 156 mg/d): 59.1 g/day | CO2 ([2]; Baleage, 156 mg/d): 5251 g/day | H2 ([2]; Baleage, 156 mg/d): 7.4 g/day | CH4 ([2]; Baleage, 182 mg/d): 0.9 g/day | CO2 ([2]; Baleage, 182 mg/d): 5202 g/day | H2 ([2]; Baleage, 182 mg/d): 13.3 g/day | CH4 ([2]; Baleage, 208 mg/d): -1.0 g/day | CO2 ([2]; Baleage, 208 mg/d): 4919 g/day | H2 ([2]; Baleage, 208 mg/d): 19.9 g/day | CH4 ([2]; Baleage, 260 mg/d): 0.3 g/day | CO2 ([2]; Baleage, 260 mg/d): 4645 g/day | H2 ([2]; Baleage, 260 mg/d): 12.7 g/day | CH4 ([2]; Pasture, 156 mg/d): 38.2 g/day | CO2 ([2]; Pasture, 156 mg/d): 6081 g/day | H2 ([2]; Pasture, 156 mg/d): 8.4 g/day | CH4 ([2]; Pasture, 182 mg/d): 36.2 g/day | CO2 ([2]; Pasture, 182 mg/d): 5977 g/day | H2 ([2]; Pasture, 182 mg/d): 14.1 g/day | CH4 ([2]; Pasture, 208 mg/d): 0.3 g/day | CO2 ([2]; Pasture, 208 mg/d): 5104 g/day | H2 ([2]; Pasture, 208 mg/d): 14.4 g/day | CH4 ([2]; Pasture, 260 mg/d): -0.7 g/day | CO2 ([2]; Pasture, 260 mg/d): 5673 g/day | H2 ([2]; Pasture, 260 mg/d): 21.3 g/day | effective minimal daily dose ([2]; cattle, about 378 kg): 0.28 to 0.4 mg/kg/day | minimum dose for an effective mitigation of methanogenesis ([2]; cattle, about 378 kg): 104 to 156 mg/day | methane inhibition ([2]; dose range of 0-104 mg/day, chamber session 1 (data not shown)): no substantial methane inhibition | methane inhibition, animals responding ([2]; doses equal to and greater than 156 mg/d): 15 out of 16 animals | Average animal liveweight ([3]; 156 mg/d (CON + 156)): 380 kg | Average animal liveweight ([3]; 182 mg/d (LOW+156)): 387 kg | Average animal liveweight ([3]; 208 mg/d (MED + 156)): 376 kg | Average animal liveweight ([3]; 260 mg/d (HIGH + 156)): 369 kg | Dry matter intake ([3]; all tested doses): not significantly different; also recorded: not significantly altered | Animal liveweight, treated versus untreated control ([3]; in vivo): about the same | blood data, treated versus untreated control ([3]; in vivo): No differences | Average dry matter intake ([3]; treatment group CON + 156): 5.54 kg/day | Average dry matter intake ([3]; treatment group HIGH): 5.54 kg/day | Average dry matter intake ([3]; treatment group HIGH + 260): 4.47 kg/day | Average dry matter intake ([3]; treatment group LOW + 182): 5.15 kg/day | Average dry matter intake ([3]; treatment group LOW, both feeds, session 2): 5.11 kg/day | Average dry matter intake ([3]; treatment group MED): 5.72 kg/day | Average dry matter intake ([3]; treatment group MED + 208): 3.86 kg/day | half-life in animals [4]: 0.8 h | half-life in animals [5]: 1.2 h | residues in meat and tissue from slaughtered steers [6]: no residues | level in milk [7]: no significant increase
